Source: US10647591B2, “High-magnesium concentrated liquid” (QUALITY PURE CO., LTD., priority 2016, dated 2020)

Key:
ovariectomized rats [1] = assay: serum test (ALP, BUN, CRE, GOT, GPT) of ovariectomized rats fed with the test agents; settings: Comparison 2 (OVXC): ovariectomized rats, calcium citrate 0.5 g/kg, no liquid
Procedure: (§1) Owing to hormone variation, menopausal females lose their bones fast and suffer from osteoporosis easily. The rats used in the experiment groups, control group, and comparison groups are female Sprague-Dawley rats. The rats are fed with different proportions of the high-magnesium potable water beforehand. Then, the serum and tissue slices of the rats are analyzed.
(§2) The dosages of the high-magnesium concentrated liquid fed to the rats in experiment groups, control group and comparison groups are shown in Table.1. The unit of the dosage is milliliter or gram per kilogram of body weight. The control group is the group of unovariectomized rats. The supply of calcium citrate is to learn the influence of calcium on osteoporosis.

ovariectomized rats [2] = assay: serum test (calcium, magnesium, potassium, sodium, phosphor) of ovariectomized rats fed with the test agents; settings: Comparison 2 (OVXC): ovariectomized rats, calcium citrate 0.5 g/kg, no liquid
Procedure: as §1, §2

ovariectomized rats [3] = assay: Micro-CT bone density and trabecula images of ovariectomized rats; type: in vivo, female Sprague-Dawley rats; settings: Comparison Group II, calcium citrate 0.5 g/kg, no liquid
Procedure: as §1, §2
FIGS. 2A-2F are respectively the images of the bone densities of the rats of Experiment Group I, Experiment Group II, Experiment Group III, Control Group, Comparison Group I, and Comparison Group II. FIGS. 3A-3F are respectively the trabecula images of the rats of Experiment Group I, Experiment Group II, Experiment Group III, Control Group, Comparison Group I, and Comparison Group II.

**Q.** How did the ALP in serum (ovariectomized rats [1]) turn out when `O=C([O-])CC(O)(CC(=O)[O-])C(=O)[O-].O=C([O-])CC(O)(CC(=O)[O-])C(=O)[O-].[Ca+2].[Ca+2].[Ca+2]` [Calcium Citrate, calcium citrate] was run?
**A.** 130 U/L

**Q.** And the BUN in serum (ovariectomized rats [1])?
**A.** 17 mg/dL

**Q.** And the CRE in serum (ovariectomized rats [1])?
**A.** 0.85 mg/dL

**Q.** And the GOT in serum (ovariectomized rats [1])?
**A.** 75 U/L

**Q.** And the GPT in serum (ovariectomized rats [1])?
**A.** 75 U/L

**Q.** And the Calcium in serum (ovariectomized rats [2])?
**A.** 12.4 mg/dL

**Q.** What about the Phosphor in serum (ovariectomized rats [2]) of the same molecule?
**A.** 8 mg/dL

**Q.** And the Potassium in serum (ovariectomized rats [2])?
**A.** 5.8 mmol/L

**Q.** What about the Sodium in serum (ovariectomized rats [2]) of the same molecule?
**A.** 143 mmol/L

**Q.** And the “bone density (Micro-CT images)” value (ovariectomized rats [3]; FIG. 2F)?
**A.** lower bone density

**Q.** What about the “trabecula distribution (Micro-CT images)” value (ovariectomized rats [3]; FIG. 3F) of the same molecule?
**A.** less compact trabecula distribution
